The values that follow come from patent publication US10087212B2, “Crystal form of Abiraterone propionate and preparation method therefor” (CHONGQING PHARMACEUTICAL RESEARCH INSTITUTE CO., LTD, priority 2015, dated 2018).

SMILES strings stand for the structures.

The data set can be described thus: Stability test of crystal forms (40±2° C., RH 75±5%, 3 months). The format is physicochemical. Conditions: for Crystal appearance / Melting point / Purity / Specific optical rotation: stability test. On the procedure:
The crystal forms obtained in Examples 2 to 4 were placed under an environment having a temperature of 40±2° C. and a humidity of RH 75±5% for 3 months. The melting point, specific optical rotation, purity and crystal appearance were measured on 0 day, 1-month, 2-month and 3-month, respectively.

Where [1] appears, read: 3 months, conclusion from Table 2.

For the compound `CCC(=O)O[C@H]1CC[C@@]2(C)C(=CC[C@@H]3[C@@H]2CC[C@]2(C)C(c4cccnc4)=CC[C@@H]32)C1` [Example 2, (3β)-17-(3-pyridyl)-androstane-5,16-dien-3-ol propionate], the Crystal appearance entry is “No change” (0 month), “No change” (1 month), “No change” (2 months) and “No change” (3 months). In addition, the Melting point reads like this: (0 month) 109.5~110.4 °C; (1 month) 109.4~110.3 °C; (2 months) 109.4~110.5 °C; (3 months) 109.8~110.5 °C. Moreover, the Purity came out at 99.88 (0 month), 99.86 (1 month), 99.82 (2 months) and 99.81 (3 months). For the same compound, the Specific optical rotation reads like this: (0 month) −44.32°; (1 month) −44.06°; (2 months) −43.67°; (3 months) −44.23°.
`CCC(=O)O[C@H]1CC[C@@]2(C)C(=CC[C@@H]3[C@@H]2CC[C@]2(C)C(c4cccnc4)=CC[C@@H]32)C1` [Example 4, (3β)-17-(3-pyridyl)-androstane-5,16-dien-3-ol propionate]: the Crystal appearance entry (0 month) is recorded as “No change”, the Crystal appearance result (1 month) was “No change”, the Crystal appearance entry (2 months) is “No change” and the Crystal appearance result (3 months) is “No change”. In addition, the Melting point runs as follows: (0 month) 109.6~110.5 °C; (1 month) 109.4~110.4 °C; (2 months) 109.5~110.7 °C; (3 months) 109.7~110.6 °C. For the same compound, the Purity is, setting by setting: (0 month) 99.86; (1 month) 99.83; (2 months) 99.81; (3 months) 99.79. Moreover, the Specific optical rotation reads like this: (0 month) −44.46°; (1 month) −44.13°; (2 months) −44.08°; (3 months) −43.92°.
As to `CCC(=O)O[C@H]1CC[C@@]2(C)C(=CC[C@@H]3[C@@H]2CC[C@]2(C)C(c4cccnc4)=CC[C@@H]32)C1` [Example 3, (3β)-17-(3-pyridyl)-androstane-5,16-dien-3-ol propionate], under “0 month”, the Crystal appearance entry is “No change”, the Melting point is 109.7~110.6 °C, the Purity amounted to 99.89 and the Specific optical rotation is on record as −44.34°. Also, for the setting “1 month”, the Crystal appearance entry is recorded as “No change”, the Melting point was 109.4~110.4 °C, the Purity is 99.87 and the Specific optical rotation is −44.21°. Moreover, for the setting “2 months”, the Crystal appearance result is reported as “No change”, the Melting point is 109.5~110.0 °C, the Purity is 99.84 and the Specific optical rotation is −44.05°. Also, under “3 months”, the Crystal appearance result is reported as “No change”, the Melting point was 109.8~110.6 °C, the Purity is given as 99.82 and the Specific optical rotation is recorded as −43.99°.
Take `CCC(=O)O[C@H]1CC[C@@]2(C)C(=CC[C@@H]3[C@@H]2CC[C@]2(C)C(c4cccnc4)=CC[C@@H]32)C1` [crystal form of Abiraterone propionate, (3β)-17-(3-pyridyl)-androstane-5,16-dien-3-ol propionate]: under setting [1], the Crystal transformation entry is “no crystal transformation occurred” and the Stability entry was “good stability”.
